In US20180194762A1 (Pharmacyclics LLC, priority 2017, published 2018) one finds IC50 and TEC/Btk data, which are given here for 13 compounds.

Like-named read-outs stand apart in the source and are kept apart here. A value given as a limit tells only on which side of the number the result lay.

Format in all cases: biochemical
The target of one test is T1, Btk (Homo sapiens, UniProt Q06187).
T1 construct: purified from insect cells as a full-length construct containing a N-terminal 6X-His tag; His6 (N); made in house; host or cells: insect cells (Method C)
The experiment in a line: Btk in vitro inhibitory activity (one of Method A TR-FRET, Method B electrophoretic mobility shift, Method C radiometric filter binding). Summed up:
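Three alternative formats were used. A radiometric filter-binding read used 8 nM full-length His-BTK with 0.2 mg/mL poly(Glu-Tyr) 4:1 (C); microfluidic separation of 1 μM FAM-peptide by 1 nM BTK gave IC50 from 12-point curves (B); TR-FRET at Km ATP, 0.5 nM Btk, gave Ki(app)-derived IC50 (A).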

In the next test the target is T2, TEC (Homo sapiens, UniProt P42680).
T2 sequence (P42680 1-631): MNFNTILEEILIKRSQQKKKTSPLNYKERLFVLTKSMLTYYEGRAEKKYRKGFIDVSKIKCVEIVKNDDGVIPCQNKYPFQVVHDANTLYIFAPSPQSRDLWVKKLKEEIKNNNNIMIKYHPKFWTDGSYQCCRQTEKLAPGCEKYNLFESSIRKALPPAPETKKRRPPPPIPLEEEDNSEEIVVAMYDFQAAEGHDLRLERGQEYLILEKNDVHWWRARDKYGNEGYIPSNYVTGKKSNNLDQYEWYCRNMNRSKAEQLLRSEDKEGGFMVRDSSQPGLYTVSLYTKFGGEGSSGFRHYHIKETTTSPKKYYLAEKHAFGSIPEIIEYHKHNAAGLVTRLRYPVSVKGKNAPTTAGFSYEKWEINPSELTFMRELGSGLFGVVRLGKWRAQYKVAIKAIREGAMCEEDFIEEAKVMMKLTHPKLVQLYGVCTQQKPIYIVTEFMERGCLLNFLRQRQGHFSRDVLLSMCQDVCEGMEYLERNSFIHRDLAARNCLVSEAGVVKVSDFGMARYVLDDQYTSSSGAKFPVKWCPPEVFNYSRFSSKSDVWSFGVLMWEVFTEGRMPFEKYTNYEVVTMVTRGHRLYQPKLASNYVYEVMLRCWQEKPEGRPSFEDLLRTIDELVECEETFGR
The experiment in a line: Inhibition of a panel of kinases (in vitro HotSpot kinase assay, 33P-ATP, 1 μM ATP). The conditions noted are these: for IC50: HotSpot kinase assay, 1 μM ATP; for TEC/Btk: ratio of TEC IC50 to Btk IC50 (selectivity). In short, it runs like this: (§1)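 Radiometric read-out: 33P transfer to a suitable substrate by each purified enzyme, ATP at 1 μM. Values are degree of inhibition.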

The next test deals with T3, panel of kinases (Homo sapiens, UniProt P51813).
T3 sequence (P51813 1-675): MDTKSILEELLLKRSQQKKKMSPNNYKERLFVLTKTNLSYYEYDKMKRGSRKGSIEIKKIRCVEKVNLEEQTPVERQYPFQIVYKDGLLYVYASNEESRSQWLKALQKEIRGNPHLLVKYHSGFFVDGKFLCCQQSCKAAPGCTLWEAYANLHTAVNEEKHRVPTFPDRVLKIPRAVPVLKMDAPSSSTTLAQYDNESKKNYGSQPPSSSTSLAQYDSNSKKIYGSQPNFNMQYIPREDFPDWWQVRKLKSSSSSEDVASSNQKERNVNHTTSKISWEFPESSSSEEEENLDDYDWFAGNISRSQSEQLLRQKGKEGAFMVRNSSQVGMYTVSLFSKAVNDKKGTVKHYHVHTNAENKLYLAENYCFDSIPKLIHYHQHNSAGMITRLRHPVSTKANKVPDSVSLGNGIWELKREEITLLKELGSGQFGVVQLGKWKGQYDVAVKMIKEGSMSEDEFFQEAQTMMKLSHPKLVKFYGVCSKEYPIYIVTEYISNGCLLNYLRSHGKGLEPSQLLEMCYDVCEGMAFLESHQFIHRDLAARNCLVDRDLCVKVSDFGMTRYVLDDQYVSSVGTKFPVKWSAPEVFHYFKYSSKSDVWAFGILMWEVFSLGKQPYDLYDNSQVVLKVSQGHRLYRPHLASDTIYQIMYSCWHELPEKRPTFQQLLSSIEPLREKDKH
In words: Inhibition of a panel of kinases (in vitro HotSpot kinase assay, 33P-ATP, 1 μM ATP), other kinases. The settings on record: BMX wild-type, read-out: BMX-WT IC50. In short, it runs like this:
as §1

Where [1] appears, read: method is one of A, B or C, not stated which, read-out: IC50 values against Btk.
Setting [2] is: wild-type Btk, read-out: Btk-WT IC50.

T1 sequence (Q06187 whole entry): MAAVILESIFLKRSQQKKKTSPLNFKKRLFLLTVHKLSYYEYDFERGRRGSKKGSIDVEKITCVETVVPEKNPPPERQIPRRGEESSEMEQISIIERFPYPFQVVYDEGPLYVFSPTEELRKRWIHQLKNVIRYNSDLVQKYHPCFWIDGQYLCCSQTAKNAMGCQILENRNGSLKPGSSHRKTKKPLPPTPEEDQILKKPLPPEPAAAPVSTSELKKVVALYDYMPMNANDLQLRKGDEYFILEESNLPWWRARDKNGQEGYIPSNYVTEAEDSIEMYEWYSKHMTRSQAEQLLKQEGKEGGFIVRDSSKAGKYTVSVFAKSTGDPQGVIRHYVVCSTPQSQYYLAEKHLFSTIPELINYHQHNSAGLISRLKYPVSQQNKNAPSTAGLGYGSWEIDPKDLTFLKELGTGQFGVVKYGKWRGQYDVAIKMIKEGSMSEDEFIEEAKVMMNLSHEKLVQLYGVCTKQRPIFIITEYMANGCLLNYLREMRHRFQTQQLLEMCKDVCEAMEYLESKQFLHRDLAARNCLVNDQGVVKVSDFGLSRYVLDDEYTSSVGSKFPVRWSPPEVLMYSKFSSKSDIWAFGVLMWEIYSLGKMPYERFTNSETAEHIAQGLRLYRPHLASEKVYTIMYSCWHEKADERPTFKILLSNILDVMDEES

Usually IC50 stands for the concentration that inhibits the measured activity by half. With `CCC(=O)N1CC(Nc2n[nH]c3nccc(-c4ccc(CNC(=O)c5noc(C(C)(C)C)n5)c(F)c4)c23)C1` [Example 130, 5-tert-butyl-N-[(2-fluoro-4-{3-[(1-propanoylazetidin-3-yl)amino]-1H-pyrazolo[3,4-b]pyridin-4-yl}phenyl)methyl]-1,2,4-oxadiazole-3-carboxamide], the IC50 was under 10 nM at Btk (setting [1]), 1.28 nM at Btk (setting [2]), 1330 nM on TEC and 3580 nM at panel of kinases. Also, the TEC/Btk on TEC worked out at 1039.

For `CC#CC(=O)N1CC(Nc2n[nH]c3nccc(-c4ccc(CNC(=O)c5noc(C(C)(C)C)n5)c(F)c4)c23)C1` [Example 131, N-{[4-(3-{[1-(but-2-ynoyl)azetidin-3-yl]amino}-1H-pyrazolo[3,4-b]pyridin-4-yl)-2-fluorophenyl]methyl}-5-tert-butyl-1,2,4-oxadiazole-3-carboxamide], the IC50 on Btk (setting [1]) is under 10 nM; on Btk (setting [2]) it was 0.201 nM; against TEC, 106 nM; at panel of kinases it was 152 nM. Further, the TEC/Btk on TEC is given as 527.

As to `CN(C)C(=O)N[C@@H]1CCN(c2n[nH]c3nccc(-c4ccc(CNC(=O)c5noc(C(C)(C)C)n5)c(F)c4)c23)C1` [Example 132, 5-tert-butyl-N-[(4-{3-[(3R)-3-[(dimethylcarbamoyl)amino]pyrrolidin-1-yl]-1H-pyrazolo[3,4-b]pyridin-4-yl}-2-fluorophenyl)methyl]-1,2,4-oxaidazole-3-carboxamide], the IC50 on Btk (setting [1]) is under 10 nM; at Btk (setting [2]), 0.889 nM; at TEC it was 806 nM; on panel of kinases, 1280 nM. On TEC, the TEC/Btk is 907.

As for `C=CC(=O)N1CCC[C@@H](Nc2n[nH]c3nccc(-c4ccc(C5(NC(=O)c6noc(C(C)(C)C)n6)CC5)c(F)c4)c23)C1` [Example 133, 5-tert-butyl-N-{1-[2-fluoro-4-(3-{[(3R)-1-(prop-2-enoyl)piperidin-3-yl]amino}-1H-pyrazolo[3,4-b]pyridin-4-yl)phenyl]cyclopropyl}-1,2,4-oxadiazole-3-carboxamide], the IC50 is 0.785 nM at Btk (setting [2]), 259 nM against TEC and 111 nM at panel of kinases. Moreover, the TEC/Btk at TEC stood at 330.

Regarding `C=CC(=O)N1CC[C@@H](Nc2n[nH]c3nccc(-c4ccc(C(C)(C)NC(=O)c5noc(C(C)(C)C)n5)cc4)c23)C1` [Example 134, 5-tert-butyl-N-{2-[4-(3-{[(3R)-1-(prop-2-enoyl)pyrrolidin-3-yl]amino}-1H-pyrazolo[3,4-b]pyridin-4-yl)phenyl]propan-2-yl}-1,2,4-oxadiazole-3-carboxamide], the IC50 on Btk (setting [1]) was under 10 nM; at Btk (setting [2]) it was 1.38 nM; at TEC, 348 nM; on panel of kinases, 224 nM. Moreover, the TEC/Btk at TEC worked out at 252.

In the case of `C=CC(=O)N1CC[C@@H](Nc2n[nH]c3nccc(-c4ccc(CC(=O)Nc5noc(C(C)(C)C)n5)c(F)c4)c23)C1` [Example 135, N-(5-tert-butyl-1,2,4-oxadiazol-3-yl)-2-[2-fluoro-4-(3-{[(3R)-1-(prop-2-enoyl)pyrrolidin-3-yl]amino}-1H-pyrazolo[3,4-b]pyridin-4-yl)phenyl]acetamide], the IC50 on Btk (setting [1]) is under 10 nM; on Btk (setting [2]), 8.87 nM; against TEC it was 475 nM; on panel of kinases it was 226 nM. The TEC/Btk at TEC came to 54.

For `C[C@H]1CC[C@@H](Nc2n[nH]c3nccc(-c4ccc(CNC(=O)c5noc(C(C)(C)C)n5)c(F)c4)c23)CN1C(=O)NCC(F)(F)F` [Example 138, (2S,5R)-5-{[4-(4-{[(5-tert-butyl-1,2,4-oxadiazol-3-yl)formamido]methyl}-3-fluorophenyl)-1H-pyrazolo[3,4-b]pyridin-3-yl]amino}-2-methyl-N-(2,2,2-trifluoroethyl)piperidine-1-carboxamide], the IC50 on Btk (setting [2]), on TEC and at panel of kinases was over 10000 nM in each case.

Turning to `C[C@H]1CC[C@@H](Nc2n[nH]c3nccc(-c4ccc(CNC(=O)c5noc(C(C)(C)C)n5)c(F)c4)c23)CN1C(=O)CC#N` [Example 140, 5-tert-butyl-N-{[4-(3-{[(3R,6S)-1-(2-cyanoacetyl)-6-methylpiperidin-3-yl]amino}-1H-pyrazolo[3,4-b]pyridin-4-yl)-2-fluorophenyl]methyl}-1,2,4-oxadiazole-3-carboxamide], the IC50 on Btk (setting [1]) is under 10 nM; on Btk (setting [2]) it was 2.65 nM; against TEC, 855 nM; on panel of kinases, 1770 nM. On TEC, the TEC/Btk is 323.

As to `C[C@H]1CC[C@@H](Nc2n[nH]c3nccc(-c4ccc(CNC(=O)c5noc(C(C)(C)C)n5)c(F)c4)c23)CN1CC#N` [Example 143, 5-tert-butyl-N-{[4-(3-{[(3R,6S)-1-(cyanomethyl)-6-methylpiperidin-3-yl]amino}-1H-pyrazolo[3,4-b]pyridin-4-yl)-2-fluorophenyl]methyl}-1,2,4-oxadiazole-3-carboxamide], the IC50 is under 10 nM on Btk (setting [1]), 7.08 nM at Btk (setting [2]), 2230 nM at TEC and 2930 nM on panel of kinases. Moreover, on TEC, the TEC/Btk worked out at 315.

For `C[C@H]1CC[C@@H](Nc2n[nH]c3nccc(-c4ccc(CNC(=O)c5cc(C(C)(C)C)on5)c(F)c4)c23)CN1` [Example 144, 5-tert-butyl-N-{[2-fluoro-4-(3-{[(3R,6S)-6-methylpiperidin-3-yl]amino}-1H-pyrazolo[3,4-b]pyridin-4-yl)phenyl]methyl}-1,2-oxazole-3-carboxamide], the IC50 came to 225 nM at Btk (setting [2]), 1320 nM against TEC and 912 nM on panel of kinases. The TEC/Btk at TEC stood at 6.

As to `C[C@H]1CC[C@@H](Nc2n[nH]c3nccc(-c4ccc(CNC(=O)c5cc(C(C)(C)C)on5)c(F)c4)c23)CN1C(=O)N(C)C` [Example 145, (2S,5R)-5-{[4-(4-{[(5-tert-butyl-1,2-oxazol-3-yl)formamido]methyl}-3-fluorophenyl)-1H-pyrazolo[3,4-b]pyridin-3-yl]amino}-N,N,2-trimethylpiperidine-1-carboxamide], the IC50 on Btk (setting [1]) was under 10 nM; on Btk (setting [2]) it was 1.93 nM; on TEC, 1060 nM; at panel of kinases it was 1040 nM. On TEC, the TEC/Btk came out at 549.

`C=CC(=O)N1C[C@H](Nc2n[nH]c3nccc(-c4ccc(CNC(=O)c5cc(C(C)(C)C)on5)c(F)c4)c23)CC[C@@H]1C` [Example 146, 5-tert-butyl-N-{[2-fluoro-4-(3-{[(3R,6S)-6-methyl-1-(prop-2-enoyl)piperidin-3-yl]amino}-1H-pyrazolo[3,4-b]pyridin-4-yl)phenyl]methyl}-1,2-oxazole-3-carboxamide]: the IC50 at Btk (setting [1]) was under 10 nM; at Btk (setting [2]), 0.202 nM; against TEC it was 47 nM; on panel of kinases, 21 nM. Further, at TEC, the TEC/Btk stood at 234.

With `C[C@H]1CC[C@@H](Nc2n[nH]c3nccc(-c4ccc(CNC(=O)c5nc(C(C)(C)C)no5)c(F)c4)c23)CN1` [Example 147, 3-tert-butyl-N-{[2-fluoro-4-(3-{[(3R,6S)-6-methylpiperidin-3-yl]amino}-1H-pyrazolo[3,4-b]pyridin-4-yl)phenyl]methyl}-1,2,4-oxadiazole-5-carboxamide], the IC50 on Btk (setting [2]) was 84.4 nM; at TEC it was over 10000 nM; on panel of kinases, 5530 nM. Moreover, the TEC/Btk on TEC is recorded as over 100.
